4 compounds from patent US20250270182A1, “Composition Comprising an Antimicrobial Agent and an Alkyl Ketal Ester Compound” (Symrise AG, priority 2022, published 2025) can be followed below.

Holding throughout (assay): Minimum Inhibitory Concentration (MIC) test, growth inhibition in 96 well plates
Assay type in all cases: cell-based

One assay deals with Aspergillus brasiliensis. Conditions: lowest concentration with complete growth inhibition, optical density, substances solved in DMSO; for MIC: Aspergillus brasiliensis, read-out: MIC in ppm Aspergillus brasiliensis. The protocol:
(§1) The Minimum Inhibitory Concentration (MIC) test is a test on growth inhibition. The estimation of MICs is executed in 96 well plates. Through the comparison of bacterial growth with positive and negative controls via optical density (OD), different concentrations of given test substances are evaluated. Bacteria were cultivated under adjusted conditions based on information of the German Collection of Microorganisms and Cell Cultures (DSMZ) and stored in 10% or 50% glycerol prior to use. Afterwards, the following method was applied: Growth medium (according to microorganism) was added to each well of the microplate. Then, the test-substances, solved in DMSO, were added in different concentrations, positive controls (water controls only with medium), solvent controls (DMSO controls only with medium), and negative controls (benchmarks according to organism). Finally, the microorganisms were added in a concentration of 1 to 6×10^6 CFU/ml (CFU=colony forming units). The incubation of the microplates was carried out at appropriate conditions. According to the resulting growth, substance concentrations are labelled either as inhibiting or not and MIC is defined as the lowest concentration where a complete growth inhibition is visible. Experiments at concentration limits (highest concentration labelled as growth and lowest concentration labelled as inhibiting) are performed at least twice. The synergistic activity of NxtSolv 320 (Ethyl propylene glycol acetal levulinate) and Nxt Solv 420 (Ethyl glycerine acetal levulinate) in combination with different antimicrobial compounds was determined by measuring the Minimum Inhibitory Concentrations (MIC) according to the method as described above. […] In special occasions, intermediate dilution steps were performed to further improve the MIC resolution. […] To verify that the tested combinations act synergistically against microorganisms, corresponding experiments were conducted with Staphylococcus aureus, Candida albicans, Aspergillus brasiliensis, Pseudomonas aeruginosa and Escherichia coli. […] In order to calculate the synergy index with MIC values, the Kull equation was used as follows: […]

For the next assay, the system named is Staphylococcus aureus. Conditions: lowest concentration with complete growth inhibition, optical density, substances solved in DMSO; for MIC: Staphylococcus aureus, read-out: MIC in ppm Staphylococcus aureus. The protocol:
as §1

The test system of another assay is Pseudomonas aeruginosa. Conditions: lowest concentration with complete growth inhibition, optical density, substances solved in DMSO; for MIC: Pseudomonas aeruginosa, read-out: MIC in ppm Pseudomonas aeruginosa. The protocol: as §1
The subject of the next assay is Candida albicans. The settings on record: lowest concentration with complete growth inhibition, optical density, substances solved in DMSO; for MIC: Candida albicans, read-out: MIC in ppm Candida albicans. The protocol: as §1
Another assay concerns Escherichia coli. The settings on record: lowest concentration with complete growth inhibition, optical density, substances solved in DMSO; for MIC: Escherichia coli, read-out: MIC in ppm Escherichia coli. The protocol:
as §1

As for `CCCC(O)CO` (centres unmarked) [1,2-Pentanediol], the MIC (usually the least concentration at which growth counts as inhibited) is 17.5 mg/mL in the assay with Aspergillus brasiliensis; 35 mg/mL with Staphylococcus aureus; 30 mg/mL in the assay with Pseudomonas aeruginosa; 12.5 mg/mL in the assay with Candida albicans; 15 mg/mL with Escherichia coli.

In the case of `CC(=O)c1ccc(O)cc1` [4-Hydroxyacetophenone], the “MIC in ppm Aspergillus brasiliensis” value in the assay with Aspergillus brasiliensis was 2,500 ppm. The “MIC in ppm Staphylococcus aureus” value in the assay on Staphylococcus aureus is 5,000 ppm. Further, in the assay with Pseudomonas aeruginosa, the “MIC in ppm Pseudomonas aeruginosa” value is 4,000 ppm. In the assay with Candida albicans, the “MIC in ppm Candida albicans” value was 6,000 ppm. Besides, the “MIC in ppm Escherichia coli” value with Escherichia coli was 2,500 ppm.

As for `CCOC(=O)CCC1(C)OCC(CO)O1` (centres unmarked) [Ethyl glycerine acetal levulinate, ethyl glycerine acetal levulinate], the MIC turned out to be 15 mg/mL in the assay with Aspergillus brasiliensis; 17.5 mg/mL in the assay with Staphylococcus aureus; 35 mg/mL with Pseudomonas aeruginosa; 25 mg/mL in the assay on Candida albicans; 25 mg/mL in the assay on Escherichia coli.

Regarding `CCCCC(CC)COCC(O)CO` (centres unmarked) [Ethylhexylglycerin], in the assay with Aspergillus brasiliensis, the “MIC in ppm Aspergillus brasiliensis” value is given as 1,000 ppm. Further, in the assay with Staphylococcus aureus, the “MIC in ppm Staphylococcus aureus” value was 1,000 ppm. Moreover, in the assay with Pseudomonas aeruginosa, the “MIC in ppm Pseudomonas aeruginosa” value was 50,000 ppm. Also, the “MIC in ppm Candida albicans” value with Candida albicans is 1,000 ppm. In addition, the “MIC in ppm Escherichia coli” value with Escherichia coli was 2,500 ppm.
